We go through three molecules from PMC12002130, “Proteorhodopsin insights into the molecular mechanism of vectorial proton transport” (Science Advances, 2025).

The target of data set [1] is T1, MAR-Arf1L8K,Q71L chimera (Candidatus Actinomarina minuta, UniProt S5DM51).
T1 construct: MAR fused to bovine Arf1 (L8K, Q71L) as crystallisation spacer on the cytoplasmic side; C-terminal GSGGSHHHHHH tag; expressed in E. coli C41(DE3); retinal site wholly in MAR
As to the kind of experiment: X-ray crystallography, cryotrapped N state. The data set is classed as binding. The conditions noted are these: covalent; photoisomer formed in situ by 532-nm light; pH 7.0; 2.3 A; isomer not assignable from density alone.

Data set [2] has as its target T1, MAR-Arf1L8K,Q71L chimera. As to the kind of experiment: X-ray crystallography. The data set is classed as binding. Conditions: covalent; Schiff base to Lys200 of MAR; dark (ground) state, pH 7.0; all-trans form taken from MAR ground state.
For a further data set, the target named is Asp72 (position 72, …). As to the kind of experiment: UV-vis. Conditions: dark (ground) state, solubilized MAR with all-trans retinal.

T1 sequence (P84080 2-181 L8K/Q71L, one chain of several, further chain): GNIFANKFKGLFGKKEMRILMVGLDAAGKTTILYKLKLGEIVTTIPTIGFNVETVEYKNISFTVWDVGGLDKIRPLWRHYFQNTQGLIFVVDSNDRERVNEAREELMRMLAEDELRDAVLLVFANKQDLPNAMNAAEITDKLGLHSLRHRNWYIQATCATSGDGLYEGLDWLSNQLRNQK

Take `CC1=C(/C=C/C(C)=C/C=C/C(C)=C\C=O)C(C)(C)CCC1` [13-cis,15-anti retinal]: on MAR-Arf1L8K,Q71L chimera [1], the “X-ray crystallography, cryotrapped N state” value is listed as “the retinal conformation in the N state represents the 13-cis,15-anti form”.

As to `CC1=C(/C=C/C(C)=C/C=C/C(C)=C/C=O)C(C)(C)CCC1` [all-trans retinal], the X-ray crystallography result at MAR-Arf1L8K,Q71L chimera [2] is reported as “The conformation of the MAR molecule is similar to that in the ground state”.

B1: MAR (marine actinobacterial rhodopsin, MacR), a proteorhodopsin (Candidatus Actinomarina minuta) (protein)
chain: MEELTYRLFMVATVGMLAGTVFLLASSREVKPEHRRGVYISALVCGIAWYHYQKMGASWESGSYDTGLRYVDWVLTVPLMFVEVLAVTRKGAAYNEAVRNWGIAATVMIGAGYYGETSAAGSNEYWTGFVIAMATYVWLMRNLQAEGEGLKGDQAVAFENIKNLILVGWIIYPLGYIAPVVGDFDAIREVLYTIADIINKVGLGVLVLQMARVQSGEKVSPGGGSHHHHHH
In the case of B1, in the data set with Asp72 (position 72, …), the pKa was approximately 7.4.

By pKa is commonly meant the pH at which an ionisable group is half protonated. A lower pKa goes with a group that gives up its proton readily.
